The results in this text go back to PubChem BioAssay (NCI).

The structures appear in SMILES notation.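 Briefly, cells in 96-well plates were exposed to five compound concentrations for 48 h, and endpoints were estimated by linear interpolation. The concentration for 50% growth inhibition is given as GI50. TGI marks complete inhibition of growth.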

Common to all, as to experiment: NCI anticancer screen, dose series, 48 h
Assay [1] concerns A498 renal.
Assay [2] concerns SK-MEL-2 melanoma.
Assay [3] has as its system SNB-19 CNS.
Assay [4] relates to SK-MEL-5 melanoma.
In assay [5] the test system is CAKI-1 renal.
Assay [6] has as its system SF-268 CNS.
For assay [7], the system named is SN12C renal.
Assay [8] concerns TK-10 renal.
The subject of assay [9] is COLO 205 colon.
Assay [10] concerns RXF 393 renal.

With `Cc1ccccc1CN1CC=c2ccccc2=N1`, the TGI in [1], in assay [2], in assay [3], in assay [4], in [5] and in assay [6] was > 100 µM throughout. The TGI in [7], in assay [8] and in assay [9] was > 100 µM in each case.

For `COc1ccc([N+](=O)[O-])c(S(=O)(=O)c2ccc(Cl)cc2)n1`, the GI50 is 11.4 µM in assay [2]; 4.45 µM in [10]; 13 µM in assay [3]; 12 µM in assay [4]; 1610 nM in assay [5]; 4.57 µM in assay [6]. In addition, the GI50 in assay [7] was 3820 nM; in assay [8], 3570 nM; in [9] it was 1960 nM. Moreover, the TGI in assay [2] was 24.3 µM; in [10] it was 16.2 µM; in assay [3] it was 29.2 µM; in [4] it was 24.9 µM; in [5], 3.01 µM; in assay [6], 17.8 µM. Further, the values for the TGI in assay [7], in [8] and in assay [9] were 16.8 µM, 11.7 µM and 3.88 µM, respectively.

`COc1cc2nc(Nc3cccc(F)c3)nc(Nc3cc(C)[nH]n3)c2cc1OC`: the GI50 in assay [2] is 2.1 µM; in assay [10], 1.81 µM; in assay [3], 1.95 µM; in assay [4] it was 1.44 µM; in assay [5] it was 1760 nM; in assay [6], 1.82 µM. The GI50 was 1890 nM in assay [7], 1820 nM in [8] and 2250 nM in assay [9]. The TGI in [2] turned out to be 4.08 µM; in assay [10], 3.22 µM; in assay [3] it was 4.05 µM; in [4], 2.84 µM; in assay [5], 3.19 µM; in assay [6], 3.46 µM. Besides, the TGI amounted to 3.79 µM in assay [7], 3.68 µM in assay [8] and 4.99 µM in assay [9].

On to `Cc1ccc(C)c(NC(=O)CC/C(=N\NC(=O)C(N)=O)C(C)C(=O)c2ccc(O)cc2)c1` (stereo not drawn), for which the TGI in assay [2], in [10], in [3], in [4], in [5] and in assay [6] was > 100 µM each time. Besides, the TGI in assay [7] and in [9] was > 100 µM throughout.

With `OCC12C3C4C1C1C2C3C41CO` (stereo not drawn), the TGI in assay [1], in assay [3], in assay [4], in [5], in assay [6] and in assay [7] was > 100 µM in each case. For the same molecule, the TGI in [8] and in [9] was > 100 µM in each case.

As to `CCCCCCCC/C=C\CCCCCCCC(=O)NCCN(CCN)C(=O)CCCCCCC/C=C\CCCCCCCC`, the TGI in assay [1], in assay [3], in assay [4], in assay [5], in [6] and in assay [7] was > 100 µM each time. Also, the TGI in [8] and in assay [9] was > 100 µM in each case.

Consider `COc1ccc(C(c2c(O)c3ccccc3n(C)c2=O)c2c(O)c3ccccc3n(C)c2=O)cc1`, for which the TGI in assay [2] is > 100 µM; in assay [10] it was > 100 µM; in assay [3] it was > 100 µM; in assay [4] it was 54.6 µM; in assay [5], > 100 µM; in [6], > 100 µM. In addition, the TGI in assay [7], in assay [8] and in assay [9] was > 100 µM throughout.

Turning to `CC(C)OP(=O)(OC(C)C)C(=Nc1ccccc1)NNc1ccc([N+](=O)[O-])cc1`, the TGI is > 100 µM in [2]; > 100 µM in assay [3]; 27.1 µM in assay [4]; > 100 µM in assay [5]; > 100 µM in [6]; > 100 µM in assay [7]. Moreover, the figures for the TGI in [8] and in assay [9] were 46.2 µM and 51.5 µM, respectively.

On to `Nc1c(-c2ccc(Cl)cc2Cl)[n+]([O-])c2ccccc2[n+]1[O-]`, for which the TGI in [1], in assay [2], in [3], in assay [4], in [5] and in assay [6] was > 100 µM each time. Moreover, the TGI in assay [7], in assay [8] and in assay [9] was > 100 µM throughout.

`Cc1ccc(Cl)c(NC(=O)C(=O)C(C(=O)c2ccncc2)C2OC(=O)c3ccccc32)c1` (stereo not drawn): the TGI in assay [1], in assay [10], in [4], in [5], in assay [6] and in [7] was > 100 µM each time. In addition, the TGI in [8] and in assay [9] was > 100 µM each time.

For the molecule `Cc1cc(Cl)ccc1N=C1NC(=O)C(CC(=O)Nc2ccc(Cl)cc2Cl)S1` (stereo not drawn), the TGI in [2], in [3], in assay [4], in assay [5], in assay [6] and in assay [7] was > 100 µM throughout. Besides, the TGI in assay [8] and in [9] was > 100 µM throughout.

In the case of `N#CCCN(c1ccc(-c2nnc(NC(=O)CNNC(=O)CC(=O)Nc3ccccc3)s2)cc1)S(=O)(=O)c1ccccc1`, the TGI in [1], in assay [2], in assay [3], in assay [4], in [5] and in assay [6] was > 100 µM throughout. Also, the TGI in [7], in assay [8] and in assay [9] was > 100 µM throughout.

As to `O=C(Nc1c(O)[nH]c(=S)[nH]c1=O)c1ccc2ccccc2n1`, the TGI in [1], in [3], in [4], in assay [5], in assay [6] and in assay [7] was > 100 µM throughout. Also, the TGI in assay [8] and in assay [9] was > 100 µM throughout.
